The record followed here is patent US20190201430A1, “TREATING OCULAR NEOVASCULARIZATION” (Massachusetts Eye and Ear Infirmary, priority 2014, published 2019).

Each structure is given as a SMILES string.

Common to all, as to assay type: cell-based, human
Assay [1] concerns caveolin-1. Put plainly: Western blotting of H2O2 induced caveolin-1 phosphorylation in HUVEC. The note with it: AICAR 2 mM 2 h. How it is done:
(§1) HUVECs (Lonza, Walkersville, Md.) were cultured in Endothelial Growth Medium (EGM, Lonza, Walkersville, Md.). For all experiments, cells were grown at 37° C. in a humidified atmosphere of 5% CO2 and 95% air. Experiments were performed on cells below passage 3 to 6 grown to 80-90% confluence.
(§2) Protein extraction and western blotting were carried out as described previously (Morizane et al. JBC). Densitometric analysis of bands was performed using ImageJ software. Lane-loading differences were normalized by β-actin.
(§3) Cells were transfected with siRNAs using Nucleofection kit (Amaxa Biosysteins, Gaithersburg, Md.), following the manufacturer's protocol. The medium was changed at 6 h after transfection. The down-regulation of each protein was evaluated at 3 days after nucleofection.
On the technique in general: Immunoblotting shows a protein as a band on a membrane.

The subject of assay [2] is c-Abl. The assay is described as follows: Western blotting of H2O2 induced c-Abl phosphorylation in HUVEC. The note with it: AICAR 2 mM 2 h. The method, then: as §1, §2, §3
The subject of the next assay is HUVEC. The assay is described as follows: Albumin endocytosis assay under H2O2 (Alexa555-BSA, confocal). The conditions noted are these: AICAR 2 mM 2 h, then H2O2 2 mM 30 min, FIG. 1D. How it is done:
After serum starvation for overnight, HUVECs were pretreated with AICAR (2 mM) for 2 h, and then stimulated with H2O2 (2 mM) for 30 min. We added BSA conjugated with Alexa 555 (50 μg/ml, Life Technologies, Gaithersburg, Md.) in the medium during the experiment. Cells on coverslips were washed three times with cold TBS and fixed in 100% methanol at −20° C. for 15 min. Cells were then permeabilized in 0.3% Triton X-100, 0.15% BSA in TBS with 0.05% Tween 20 (TBST) for 15 min at room temperature and blocked with 0.5% skim milk in TBST for 60 min at room temperature. Cells were incubated in p-caveolin-1 antibody diluted 1:200 and VE-cadherin antibody diluted 1:400 for overnight at 4° C., and then incubated for 2 h in secondary antibody diluted 1:300. Cells were then rinsed three times in TBST before mounting in Toto3 (Life Technologies, Gaithersburg, Md.). Images were acquired with confocal microscope, Leica TCS SP2 spectral confocal laser scanning microscope (Leica Microsystems, Wetzlar, Germany).

Assay [3] deals with prdx1/c-Abl complex. Put plainly: Co-immunoprecipitation of prdx1 and c-Abl under H2O2. The note with it: AICAR 2 mM 2 h, H2O2 2 mM 30 min. The method, then:
Immunoprecipitation was performed with the Universal Magnetic Co-IP Kit (Active Motif North America, Carlsbad, Calif.), according to the manufacturer's instruction.
as §3

Assay [4] relates to HUVECs cocultured with NHDFs. The assay is described as follows: In vitro angiogenesis (tube formation) assay. The conditions noted are these: AICAR 0.25, 0.5, 1.0, 2.0 mM; VEGF 12.5 ng/mL; FIG. 8A,B. The method, then: To evaluate the effects of AICAR on angiogenesis, HUVECs were cocultured with NHDFs in a 24-well plate with or without VEGF and AICAR. NHDF cells were seeded at 1.0×10^5 cells/well and then cultured for 2 wks to form a fibroblast cell sheet. […] Suramin (50 μM) was used as the inhibitor of VEGF. At 3, 7 and 10 days after treatment, cells were fixed at −20° C. in ethanol and acetone (1:1). Subsequently, cells were blocked with 1% bovine serum albumin (BSA) in phosphate-buffered saline for 30 min at room temperature, and then incubated with primary rabbit anti-human CD31 antibody overnight at 4° C. After the cells were washed with Tris-buffered saline (TBS), Alexa Flour 488 goat anti-rabbit IgG was applied for 2 h at room temperature. The tube length was quantified using a Kurabo Angiogenesis Image Analyzer (imaging software; Kurabo, Osaka, Japan).

In the next assay the test system is VEGFR2. The assay is described as follows: Western blotting of VEGF induced VEGFR2 phosphorylation in HUVECs. The note with it: AICAR 2 mM 2 h, VEGF 12.5 ng/mL 0 to 60 min; FIG. 8C,D. The method, then:
Human umbilical vein endothelial cells (HUVECs) were cultured in endothelial growth medium (EGM, Lonza, Walkersville, Md.). Normal human dermal fibroblasts (NHDFs) were cultured in fibroblast basal medium (ATCC, Rockville, Md.). Cells were grown at 37° C. in a humidified atmosphere of 95% air, 5% CO2. Experiments were performed on cells below passage 3 to 6 grown to 80%-90% confluence. Protein extraction and Western blotting were carried out as described previously (Morizane et al. JBC (26)). We conducted a densitometric analysis of bands using ImageJ software. Lane-loading differences were normalized by β-actin.

Assay [5] deals with caveolin-1. Put plainly: Western blotting of VEGF induced caveolin-1 phosphorylation in HUVECs. The conditions noted are these: AICAR 2 mM 2 h. The method, then: (§4) Human umbilical vein endothelial cells (HUVECs) were cultured in endothelial growth medium (EGM, Lonza, Walkersville, Md.). Normal human dermal fibroblasts (NHDFs) were cultured in fibroblast basal medium (ATCC, Rockville, Md.). Cells were grown at 37° C. in a humidified atmosphere of 95% air, 5% CO2. Experiments were performed on cells below passage 3 to 6 grown to 80%-90% confluence.
(§5) Protein extraction and Western blotting were carried out as described previously (Morizane et al. JBC (26)). We conducted a densitometric analysis of bands using ImageJ software. Lane-loading differences were normalized by β-actin.
(§6) Cells were transfected with siRNAs using a Nucleofection kit (Amaxa Biosystems, Gaithersburg, Md.), following the manufacturer's protocol. The medium was changed 6 h after transfection. The down-regulation of each protein was evaluated 3 days after nucleofection.

Assay [6] relates to c-Abl. The assay is described as follows: Western blotting of VEGF induced c-Abl phosphorylation in HUVECs. The note with it: AICAR 2 mM 2 h. How it is done: as §4, §5, §6
The subject of assay [7] is prdx1/c-Abl complex. The assay is described as follows: Co-immunoprecipitation of prdx1 and c-Abl under VEGF. The note with it: AICAR 2 mM 2 h, VEGF 12.5 ng/mL 10 min. The method, then:
Immunoprecipitation was performed with the Universal Magnetic Co-IP Kit (Active Motif North America, Carlsbad, Calif.) according to the manufacturer's instruction.
as §6

[8] abbreviates: AMPKα1 or α2 siRNA HUVEC, H2O2 2 mM 30 min, FIG. 3.
[9] abbreviates: AMPKα1 or α2 siRNA, VEGF 12.5 ng/mL 10 min, FIG. 13.

`NC(=O)c1ncn([C@@H]2O[C@H](CO)[C@@H](O)[C@H]2O)c1N` [AICAR, 5-Aminoimidazole-4-carboxamide riboside]: in the assay on caveolin-1 [1] (setting [8]), the “inhibitory effect of AICAR on H2O2 induced caveolin-1 phosphorylation after knockdown of either AMPKα isoform” value is “abolished”. Also, the “H2O2 induced phosphorylation of caveolin-1” value in the assay on caveolin-1 [1] (HUVEC, then H2O2 0.5-2.0 mM 30 min, FIG. 1A,B) was “significantly suppressed”. The “H2O2 induced caveolin-1 phosphorylation in c-Abl siRNA cells” value in the assay on caveolin-1 [1] (c-Abl siRNA HUVEC, H2O2 2 mM 30 min, FIG. 5D,E) is given as “did not change caveolin-1 phosphorylation significantly”. Moreover, the “inhibitory effect of AICAR on H2O2 induced caveolin-1 phosphorylation in cells lacking prdx1” value in the assay on caveolin-1 [1] (prdx1 siRNA HUVEC, H2O2 2 mM 30 min, FIG. 6A,B) was “abolished”. Moreover, the “inhibitory effect of AICAR on H2O2 induced c-Abl phosphorylation after knockdown of either AMPKα isoform” value in the assay with c-Abl [2] (setting [8]) is “abolished”. In addition, the “H2O2 induced phosphorylation of c-Abl” value in the assay on c-Abl [2] (HUVEC, then H2O2 0.5-2.0 mM 30 min, FIG. 1A,C) is listed as “significantly suppressed”. The “inhibitory effect of AICAR on H2O2 induced c-Abl phosphorylation in cells lacking prdx1” value in the assay on c-Abl [2] (prdx1 siRNA HUVEC, H2O2 2 mM 30 min, FIG. 6A,C) is reported as “abolished”. In addition, in the assay on HUVEC, the “H2O2 induced albumin endocytosis” value is “suppressed” and the “caveolin-1 phosphorylation (immunofluorescence) in albumin endocytosis assay” value was “suppressed”. For the same molecule, in the assay on prdx1/c-Abl complex [3] (FIG. 6D), the “H2O2 induced dissociation between prdx1 and c-Abl” value is reported as “inhibited”. For the same molecule, in the assay with prdx1/c-Abl complex [3] (AMPKα1 or α2 siRNA HUVEC, FIG. 6F,G), the “inhibitory effect of AICAR on dissociation between c-Abl and prdx1 after deletion of AMPKα1 or α2” value is reported as “decreased”. In [4], the “VEGF-induced vascular tube formation (tube length)” value was “dose-dependent inhibition”. In addition, in the assay on VEGFR2, the “VEGFR2 phosphorylation upon VEGF stimulation” value is listed as “no effect”. For the same molecule, the “VEGF induced phosphorylation of caveolin-1” value in the assay on caveolin-1 [5] (VEGF 12.5 ng/mL 0 to 60 min, FIG. 11A,C) was “significantly suppressed”. The “inhibitory effect of AICAR on VEGF-induced caveolin-1 phosphorylation after knockdown of either AMPKα isoform” value with caveolin-1 [5] (setting [9]) is recorded as “abolished”. In addition, the “inhibitory effect of AICAR on VEGF-induced caveolin-1 phosphorylation in cells lacking prdx1” value with caveolin-1 [5] (prdx1 siRNA, VEGF 12.5 ng/mL 10 min, FIG. 15A,C) is “abolished”. Moreover, the “VEGF induced phosphorylation of c-Abl” value in the assay on c-Abl [6] (VEGF 12.5 ng/mL 0 to 60 min, FIG. 11A,B) is reported as “significantly suppressed”. The “inhibitory effect of AICAR on VEGF-induced c-Abl phosphorylation after knockdown of either AMPKα isoform” value with c-Abl [6] (setting [9]) was “abolished”. The “inhibitory effect of AICAR on VEGF-induced c-Abl phosphorylation in cells lacking prdx1” value with c-Abl [6] (prdx1 siRNA, VEGF 12.5 ng/mL 10 min, FIG. 15A,B) is on record as “abolished”. In the assay with prdx1/c-Abl complex [7] (FIG. 15D), the “VEGF induced dissociation between prdx1 and c-Abl” value was “inhibited”. Moreover, the “ability of AICAR to inhibit VEGF induced prdx1/c-Abl dissociation after knockdown of AMPKα1 or α2” value in the assay on prdx1/c-Abl complex [7] (AMPKα1 or α2 siRNA, FIG. 15F,G) was “decreased”.
